The test system of assay [1] is optic nerve oxygen tension (ONPo2). The settings on record: pig; Stefánsson et al., IOVS 1999; cited from earlier work.
Assay [2] relates to diabetic retinopathy in patients with diabetes mellitus. In words: Retrospective clinical study of progression of diabetic retinopathy in diabetics on glaucoma eye drops. It counts as in vivo, human. Particulars: for two year event rate (progression of retinopathy): diabetic patients on eye drops for glaucoma or ocular hypertension, 2 years from onset of medication, CAI group n=19, non-CAI group n=12. The procedure:
In a retrospective clinical study, the hypothesis that dorzolamide eye drops (Trusopt®) used bid or tid for glaucoma or ocular hypertension would slow the progression of diabetic retinopathy in patients with diabetes mellitus was tested. Since 1980, a screening program has been in place for diabetic eye disease at the Department of Ophthalmology, University of Iceland, Reykjavik, Iceland. Eye examinations of diabetic patients have been performed annually and examination results have been documented. A retrospective study was undertaken to find those diabetics who were using CAIs or beta-blockers (such as timolol) for either glaucoma or ocular hypertension. These candidates were selected from the general population of the screening program. In total, 31 patients were found. Of these 31, 19 were prescribed CAIs or a combination of CAIs and beta-blockers. The remaining 12 patients were taking a non-CAI medication and served as a control group in the study. The examination findings were reviewed to determine if the changes in retinopathy rating could be associated with CAI use. Also noted was historical information such as length of time since diabetes had been diagnosed, type of medication and time span of usage, visual acuity and other relevant comments. Of those using a CAI, 12 were men and seven were women. The mean age was 67 (range 28-80) for men and 73 (range 62-81) for women. The average time since diagnosis of diabetes mellitus was 14.1 years (SD=9.7 years). The average frequency of check-ups was every 9.1 months (SD=10.7 months). There was an average of 7.4 years of eye examinations and fundus photographs on record (SD=6 years) and the patients were on a CAI for an average of 18.2 months (SD=14.4 months). Of those in the non-CAI (control) group, seven were men and five were women. The mean age was 73 (range 54-82) for men and 75 (range 67-86) for women. The average time since diabetic diagnosis was 15.3 years (SD=7.8 years). The average frequency of check-ups was every 10.9 months (SD=7.9 months). There was an average of 6.2 years of eye examinations and fundus photographs on record (SD=4 years) and the patients were on medication for an average of 58.8 months (SD=52.4 months).

In the case of `CCN[C@H]1C[C@H](C)S(=O)(=O)c2sc(S(N)(=O)=O)cc21` [dorzolamide], in assay [1], the “effect on optic nerve oxygen tension (ONPo2)” value is listed as “increased ONPo2”. Further, in assay [2], the “two year event rate (progression of retinopathy)” value amounted to 0%. Moreover, in assay [2] (diabetics in the treated group), the “development of sight-threatening retinopathy during the treatment period” value is “none”. Also, the “rate of progression of diabetic retinopathy compared with diabetics receiving timolol eye drops and with the total population of diabetics in Iceland” value in assay [2] (diabetics using eye drops on a regular basis) is reported as “lower rate of progression of diabetic retinopathy”.

On to `CC(C)(C)NC[C@H](O)COc1nsnc1N1CCOCC1` [timolol], for which, in assay [2], the “two year event rate (progression of retinopathy)” value came out at 8.3%. Besides, in assay [2] (non-CAI (control) group, 12 diabetic patients, entire observation period), the “overall event rate (retinopathy change) for the entire observation period” value is reported as 25%.

As for `CC(=O)Nc1nnc(S(N)(=O)=O)s1` [Acetazolamide, N-[5-(aminosulfonyl)-1,3,4-thiadiazol-2-yl]acetamide], the “effect on optic nerve oxygen tension (ONPo2)” value in assay [1] is “increased ONPo2”.

These data come from patent US20020055458A1, “Method for the prevention and treatment of retinopathy” (priority 2000, published 2002).
